From PubChem BioAssay AID1963849 (Molecular Pharmacology Branch, DTP, NCI, 2024)

System: 299254-011-R-J1-PDC complex spheroid viability
Assay: Anticancer human tumor 299254-011-R-J1-PDC patient-derived melanoma cell line growth inhibition [POLQ]
Conditions: for IC50: curve of first compound; for viability, T/C: stronger effect = lower value
In short: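 Patient-derived tumour cells were co-cultured with HUVEC and mesenchymal stem cells as multicellular spheroids at 37 °C. They were treated with POLQ inhibitors (novobiocin, ART-558, RP6685) alone or combined with other agents. Top concentrations were at or near clinical Cmax (otherwise 10 microM; SN-38 at 1 microM), decreasing in half-log steps.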

[1] = second compound 0.0316 µM, first compound 0.0316 µM
[2] = second compound 0.0316 µM, first compound 0.1 µM
[3] = second compound 0.0316 µM, first compound 0.316 µM
[4] = second compound 0.0316 µM, first compound 1 µM
[5] = second compound 0.0316 µM, first compound 3.16 µM
[6] = second compound 0.0316 µM, first compound 10 µM
[7] = second compound 0.1 µM, first compound 0.0316 µM
[8] = second compound 0.1 µM, first compound 0.1 µM
[9] = second compound 0.1 µM, first compound 0.316 µM
[10] = second compound 0.1 µM, first compound 1 µM
[11] = second compound 0.1 µM, first compound 3.16 µM
[12] = second compound 0.1 µM, first compound 10 µM
[13] = second compound 0.316 µM, first compound 0.0316 µM
[14] = second compound 0.316 µM, first compound 0.1 µM
[15] = second compound 0.316 µM, first compound 0.316 µM
[16] = second compound 0.316 µM, first compound 1 µM
[17] = second compound 0.316 µM, first compound 3.16 µM
[18] = second compound 0.316 µM, first compound 10 µM
[19] = second compound 1 µM, first compound 0.0316 µM
[20] = second compound 1 µM, first compound 0.1 µM
[21] = second compound 1 µM, first compound 0.316 µM
[22] = second compound 1 µM, first compound 1 µM
[23] = second compound 1 µM, first compound 3.16 µM
[24] = second compound 1 µM, first compound 10 µM
[25] = second compound 3.16 µM, first compound 0.0316 µM
[26] = second compound 3.16 µM, first compound 0.1 µM
[27] = second compound 3.16 µM, first compound 0.316 µM
[28] = second compound 3.16 µM, first compound 1 µM
[29] = second compound 3.16 µM, first compound 3.16 µM
[30] = second compound 3.16 µM, first compound 10 µM
[31] = second compound 10 µM, first compound 0.0316 µM
[32] = second compound 10 µM, first compound 0.1 µM
[33] = second compound 10 µM, first compound 0.316 µM
[34] = second compound 10 µM, first compound 1 µM
[35] = second compound 10 µM, first compound 3.16 µM
[36] = second compound 10 µM, first compound 10 µM
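Further: spheroids exposed to drugs for one week before measurement.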
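Wherever viability, T/C is given: percent viability relative to DMSO vehicle control taken as 100%.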

CC1COCCN1c1cc(-c2ccnn2C)c2ccnc(-c3ccn[nH]3)c2n1 (stereo unspecified) + Cc1cccc(N(C)C(=O)C2C(O)CCN2c2nc(C)cc(C(F)(F)F)c2C#N)c1
IC50 (second compound 0.0316 µM): 246 nM
IC50 (second compound 0.1 µM): 217 nM
IC50 (second compound 0.316 µM): 297 nM
IC50 (second compound 1 µM): 221 nM
IC50 (second compound 3.16 µM): 158 nM
IC50 (second compound 10 µM): 153 nM
viability, T/C [1]: 95.1%
viability, T/C [2]: 73.4%
viability, T/C [3]: 42.1%
viability, T/C [4]: 31.5%
viability, T/C [5]: 27.3%
viability, T/C [6]: 22.5%
viability, T/C [7]: 77.4%
viability, T/C [8]: 77.2%
viability, T/C [9]: 36.9%
viability, T/C [10]: 30.4%
viability, T/C [11]: 20.2%
viability, T/C [12]: 19%
viability, T/C [13]: 104%
viability, T/C [14]: 73.5%
viability, T/C [15]: 48.6%
viability, T/C [16]: 30.8%
viability, T/C [17]: 23.6%
viability, T/C [18]: 14.6%
viability, T/C [19]: 111%
viability, T/C [20]: 73.1%
viability, T/C [21]: 38.2%
viability, T/C [22]: 28.2%
viability, T/C [23]: 22.1%
viability, T/C [24]: 19%
viability, T/C [25]: 82.8%
viability, T/C [26]: 59.1%
viability, T/C [27]: 36.5%
viability, T/C [28]: 24.6%
viability, T/C [29]: 24.7%
viability, T/C [30]: 20.1%
viability, T/C [31]: 76.4%
viability, T/C [32]: 59.1%
viability, T/C [33]: 34%
viability, T/C [34]: 29%
viability, T/C [35]: 20.7%
viability, T/C [36]: 19.4%

Cn1ncnc1[C@H]1c2n[nH]c(=O)c3cc(F)cc(c23)N[C@@H]1c1ccc(F)cc1 + Nc1ccc(C#CCN(C(=O)Cc2ncc(C(F)(F)F)cc2C(F)(F)F)c2ccc(F)cc2)nn1
IC50 (second compound 0.0316 µM): > 100 nM
IC50 (second compound 0.1 µM): > 100 nM
IC50 (second compound 0.316 µM): > 100 nM
IC50 (second compound 1 µM): > 100 nM
IC50 (second compound 3.16 µM): > 100 nM
IC50 (second compound 10 µM): > 100 nM
viability, T/C (second compound 0.0316 µM, first compound 0.000316 µM): 107%
viability, T/C (second compound 0.0316 µM, first compound 0.001 µM): 101%
viability, T/C (second compound 0.0316 µM, first compound 0.00316 µM): 97.2%
viability, T/C (second compound 0.0316 µM, first compound 0.01 µM): 98.6%
viability, T/C [1]: 99.9%
viability, T/C [2]: 108%
viability, T/C (second compound 0.1 µM, first compound 0.000316 µM): 115%
viability, T/C (second compound 0.1 µM, first compound 0.001 µM): 94%
viability, T/C (second compound 0.1 µM, first compound 0.00316 µM): 111%
viability, T/C (second compound 0.1 µM, first compound 0.01 µM): 95.5%
viability, T/C [7]: 107%
viability, T/C [8]: 101%
viability, T/C (second compound 0.316 µM, first compound 0.000316 µM): 107%
viability, T/C (second compound 0.316 µM, first compound 0.001 µM): 113%
viability, T/C (second compound 0.316 µM, first compound 0.00316 µM): 95.1%
viability, T/C (second compound 0.316 µM, first compound 0.01 µM): 113%
viability, T/C [13]: 125%
viability, T/C [14]: 89.9%
viability, T/C (second compound 1 µM, first compound 0.000316 µM): 107%
viability, T/C (second compound 1 µM, first compound 0.001 µM): 106%
viability, T/C (second compound 1 µM, first compound 0.00316 µM): 102%
viability, T/C (second compound 1 µM, first compound 0.01 µM): 107%
viability, T/C [19]: 102%
viability, T/C [20]: 113%
viability, T/C (second compound 3.16 µM, first compound 0.000316 µM): 103%
viability, T/C (second compound 3.16 µM, first compound 0.001 µM): 103%
viability, T/C (second compound 3.16 µM, first compound 0.00316 µM): 94.4%
viability, T/C (second compound 3.16 µM, first compound 0.01 µM): 105%
viability, T/C [25]: 98.2%
viability, T/C [26]: 105%
viability, T/C (second compound 10 µM, first compound 0.000316 µM): 96.3%
viability, T/C (second compound 10 µM, first compound 0.001 µM): 93.3%
viability, T/C (second compound 10 µM, first compound 0.00316 µM): 88.1%
viability, T/C (second compound 10 µM, first compound 0.01 µM): 102%
viability, T/C [31]: 87.2%
viability, T/C [32]: 90.7%

CCc1cc2c(N3CCc4c(cc(Cn5ccnc5)cc4-c4cn(C)nc4C(F)(F)F)C3=O)cc(C)nc2c(OC)n1 + Cc1cccc(N(C)C(=O)C2C(O)CCN2c2nc(C)cc(C(F)(F)F)c2C#N)c1
IC50 (second compound 0.0316 µM): > 10000 nM
IC50 (second compound 0.1 µM): > 10000 nM
IC50 (second compound 0.316 µM): > 10000 nM
IC50 (second compound 1 µM): > 10000 nM
IC50 (second compound 3.16 µM): > 10000 nM
IC50 (second compound 10 µM): > 10000 nM
viability, T/C [1]: 96.3%
viability, T/C [2]: 92.5%
viability, T/C [3]: 96.6%
viability, T/C [4]: 104%
viability, T/C [5]: 94.8%
viability, T/C [6]: 61.3%
viability, T/C [7]: 109%
viability, T/C [8]: 109%
viability, T/C [9]: 90.3%
viability, T/C [10]: 94.8%
viability, T/C [11]: 80.9%
viability, T/C [12]: 71.3%
viability, T/C [13]: 108%
viability, T/C [14]: 115%
viability, T/C [15]: 121%
viability, T/C [16]: 106%
viability, T/C [17]: 87.9%
viability, T/C [18]: 65.3%
viability, T/C [19]: 105%
viability, T/C [20]: 100%
viability, T/C [21]: 99.7%
viability, T/C [22]: 90.2%
viability, T/C [23]: 88.3%
viability, T/C [24]: 58.5%
viability, T/C [25]: 117%
viability, T/C [26]: 98.3%
viability, T/C [27]: 95.3%
viability, T/C [28]: 84.5%
viability, T/C [29]: 80.2%
viability, T/C [30]: 70.2%
viability, T/C [31]: 109%
viability, T/C [32]: 117%
viability, T/C [33]: 106%
viability, T/C [34]: 82.2%
viability, T/C [35]: 77.8%
viability, T/C [36]: 58.6%
